From US9669054B2, “pH buffered bioactive glass, and its preparation process and use” (CHANGZHOU BIO-SHENG TECHNOLOGY CO., LTD., priority 2011, dated 2017)

Experiments:
Format in all cases: in vivo
[1] = tested on: acetic-acid induced chronic gastric ulcers; assay: Treatment of acetic-acid induced chronic gastric ulcers in rats
Procedure: After fasting for 24 hours, the rats were anesthetized and disinfected in a conventional way, and then was cut from the xiphoid down along the medioventral line to about 2 cm, so as to remove the stomach from the enterocoelia; 5 μl of 100% glacial acetic acid was injected by using a microsyringe into a position close to the muscular layer below the anterior wall serosa of the gastric antrum; when a translucent white spot with a diameter of about 3 mm appeared, the stomach was given back to the enterocoelia, and was enveloped in omentum majus; then, peritoneum, muscular layer and skin were sutured in this order.
Each drug was divided into 5 groups according to the administration method described above, namely, a model group and four groups with different doses of drugs. Each group of the drugs was administered to 6 to 8 […]. At the third day after the surgery, the treatment started by intragastrically administering drugs to the rats once a day for 7 days, wherein normal saline was administered in the same volume to the rats in the model group instead. […] The following indices were measured:
(1) ulcer index: the longest diameter in the length direction of an ulcer area and the longest diameter in the width direction perpendicular to the longest diameter in the length direction of the ulcer area were measured by a vernier caliper, and the product of the above two diameters is the ulcer index.
(2) ulcer inhibition rate: it represents the inhibition effect of a drug on the ulcer index.

[2] = tested on: IL-1β-induced recurrence of acetic-acid induced chronic gastric ulcers; assay: Prevention of IL-1β-induced recurrence of acetic-acid induced chronic gastric ulcers in rats; conditions: 10 mg/kg/d intragastric for 7 days before IL-1β
Procedure: In this study and experiment, we evaluated the preventive effect of the tested drug (namely, the bioactive glass) on the recurrence of chronic gastric ulcers by adopting the rat model of IL-1β-induced recurrence of acetic-acid induced chronic gastric ulcer, and using omeprazole as the control.
The model of acetic-acid induced chronic gastric ulcer was first copied here: After fasting for 24 hours, the rats were anesthetized and disinfected in a conventional way, and then was cut from the xiphoid down along the medioventral line to about 2 cm, so as to remove the stomach from the enterocoelia; 5 μl of 100% glacial acetic acid was injected by using a microsyringe into a position close to the muscular layer below the anterior wall serosa of the gastric antrum; when a translucent white spot with a diameter of about 3 mm appeared, the stomach was given back to the enterocoelia, and was enveloped in omentum majus; then, peritoneum, muscular layer and skin were sutured in this order. 90 days after the injection of acetic acid, a model of gastric ulcer recurrence was copied by intraperitoneal injection of 1 μg/kg of IL-1β according to the method described in “Role of neutrophils in a rat model of gastric ulcer recurrence caused by interleukin-1 beta”, T. Watanabe, T. Arakawa, T. Fukuda, K. Higuchi, and K. Kobayashi, Am J Pathol, 1997, 150:971-979 . […]

[3] = tested on: mouse stress-induced gastric ulcers; assay: Comparative experiment on inhibition of stress-induced gastric ulcers versus representative drugs; conditions: mice, intragastric, stress in water 15 hours
Procedure: The mice were divided into four groups, to which deionized water (the solvent control group), and three kinds of Weibeisheng with pH 7, 8 and 9 at a dose of 1 g/kg were respectively intragastrically administrated. Two hours later, the mice were subjected to stress in water at 21±1° C. for 15 hours, and were administered again two hours before the end of the stress. Then the animals were killed and autopsy was performed. […]
Two hours later, the mice were subjected to stress in water at 21±1° C. for 15 hours (the drug was administered to the Weibeisheng group again two hours before the end of stress). […] After the ulcer index of each group was scored, the inhibition effect of each drug on mouse stress-induced gastric ulcers (namely, the maximum inhibition rate Emax) was calculated.
The ratios used in these two Experiment Examples were determined according to the weight of the mouse and the amount of intragastric administration.

## COc1ccc2[nH]c([S+]([O-])Cc3ncc(C)c(OC)c3C)nc2c1 (centres unmarked) [Omeprazole, omeprazole]
[1]; Rattus norvegicus, po, 168 h, rats, intragastric once a day for 7 days, ulcer inhibition rate, read-out: ED50 (median effective dose)
  ED50: 1.3 mg/kg
[1]; chronic gastric ulcers, as stated in summary/description
  median effective dose ED50 for treating chronic gastric ulcers: 1.3 mg/kg/day
[1]; rats, intragastric once a day for 7 days
  Emax (maximum inhibition rate): 66.2 ± 7.4%
[2]
  preventive effect on the recurrence of chronic gastric ulcers (inhibition rate): 50%
[3]
  Emax (% inhibition rate): 64.8 % inhibition rate
